Laboratory results taken from US5646164A, “α-methylene-γ-butyrolactones: new inhibitors of platelet aggregation” (National Science Council, priority 1995, dated 1997).
In brackets after ≈: the same amount, converted by molar mass.

Legend:
Type in all cases: cell-based
[1] = test system: platelet aggregation induced by arachidonic acid (AA) in washed rabbit platelets; test: Inhibition of arachidonic acid-induced aggregation of washed rabbit platelets (turbidimetry, Lumi-aggregometer); conditions: Oryctolagus cuniculus; for activity at 100 µg/mL: 0.05 h, AA 100 μM, compound 100 μg/ml, preincubated at 37° for 3 min, mean ± SEM (n); for IC50: AA 100 μg/ml
Protocol: (§1) The pharmacological activity of these compounds were determined according to G.V.R. Born by turbidimetry (J. Physiol., 1963, 168, 178). Based on the method, samples were suspended in rabbit platelets which were washed with platelet-rich plasma, the aggregation was then counted by the Lumi-aggregometer (Model 1020, Paytoon, Canada). Formula (I-III) at the concentration of 100 μg/ml are found to inhibit the platelet aggregation perfectly which was induced by arachidonic acid (AA), collagen, ADP, and PAF. Since the structures of these compounds are different from those of known antiplatelet agents, the present invention have the potential for further development.
4. AA (arachidonic acid), purchased from Sigma, was dissolved in deionized water.
(§2) Platelet suspension was prepared from EDTA-anticoagulated Platelet-rich plasma according to washing procedures described previously (Teng, C. M. et. al., Thromb Haemost 59, 304, 1991). Platelets were counted by Hemalaser 2 (Sebia, France) and adjusted to a concentration of 4.5×10^8 platelets/mL. Platelet pellets were finally suspended in Tyrode's buffer (pH 7.4) of the following composition: NaCl (136.8 mM), KCl (2.8 mM), NaHCO3 (11.9 mM), MgCl2 (2.1 mM), NaH2 PO4 (0.33 mM), CaCl2 (1 mM), glucose (11.2 mM) containing 0.35% bovine serum albumin.
(§3) Aggregation was measured by the turbidimetry method as described by O'Brien (J Clin Pathol 15, 452, 1962). ATP released from platelets was detected by the bioluminescence method of DeLuca and McElory (Methods Enzymol 57, 3, 1978). Both aggregation and ATP release were measured simultaneously in a Lumi-aggregometer (model 1020B, Payton, Canada) connected to two dt/al-channel recorders. Platelet preparations were stirred at 900 rpm. When DMSO was used as solvent, its final concentration was fixed at 0.5% (v/v) to eliminate the effect of the solvent. For the calculation of percentage aggregation, the absorbance of platelet suspension was designated as 0% aggregation and the absorbance of platelet-free Tyrode's solution as 100% aggregation. The antiplatelet effects were shown in Table 1 and the inhibitory concentrations for 50% aggregation (IC50) were expressed in Table 2.

[2] = test system: platelet aggregation induced by collagen (Col) in washed rabbit platelets; test: Inhibition of collagen-induced aggregation of washed rabbit platelets (turbidimetry, Lumi-aggregometer); conditions: Oryctolagus cuniculus, Col 10 μg/ml; for activity at 100 µg/mL: 0.05 h, compound 100 μg/ml, preincubated at 37° for 3 min, mean ± SEM (n)
Protocol: as §1
2. Collagen (type I: bovine Achilles tendon), from the Sigma Chemical Co., was homogenized in 25 mM acetic acid and stored (1 mg/mL) at -70° C.
as §2, §3

[3] = test system: platelet aggregation induced by platelet-activating factor (PAF) in washed rabbit platelets; test: Inhibition of PAF-induced aggregation of washed rabbit platelets (turbidimetry, Lumi-aggregometer); conditions: Oryctolagus cuniculus, PAF 2 nM
Protocol: as §1
3. PAF (1-O-alkyl-2-acetyl-sn-glycerol-3-phosphorylcholine), purchased from Sigma, was dissolved in chloroform and diluted into 0.1% BSA-saline solution immediately prior to use.
as §2, §3

[4] = test system: platelet aggregation induced by thrombin (Thr) in washed rabbit platelets; test: Inhibition of thrombin-induced aggregation of washed rabbit platelets (turbidimetry, Lumi-aggregometer); conditions: Oryctolagus cuniculus, Thr 0.1 U/ml; for activity at 100 µg/mL: 0.05 h, compound 100 μg/ml, preincubated at 37° for 3 min, mean ± SEM (n)
Protocol: as §1
1. Bovine thrombin, from the Parke Davis Co., was dissolved in 50% (v/v) glycerol for a stock solution of 100 NIH units/mL.
as §2, §3

| SMILES | activity at 100 µg/mL [1] [%] | IC50 [1] [µg/mL] | activity at 100 µg/mL [2] [%] | IC50 [2] [µg/mL] | IC50 [3] [µg/mL] | activity at 100 µg/mL [4] [%] | IC50 [4] [µg/mL] |
| --- | --- | --- | --- | --- | --- | --- | --- |
| C=C1CC(C)(COc2cc(=O)oc3ccccc23)OC1=O (stereo not shown) [Compound 1, 4-[(2,3,4,5-Tetrahydro-2-methyl-4-methylene-5-oxo-2-furanyl)methoxy]-2H-1-benzopyran-2-one] | 23.3 ± 12.6 | > 50 | 8.5 ± 6.9 | > 50 | > 50 | 74.4 ± 9.6 | > 50 |
| C=C1CC(COc2cc(=O)oc3ccccc23)(c2ccccc2)OC1=O (stereo not shown) [Compound 2, 4-[(2,3,4,5-Tetrahydro-4-methylene-5-oxo-2-phenyl-2-furanyl)methoxy]-2H-1-benzopyran-2-one] | 0 | 2.86 (≈ 8.21 µM) | 0 |  | 36 (≈ 103 µM) | 0 |  |
| C=C1CC(C)(COc2ccc3ccc(=O)oc3c2)OC1=O (stereo not shown) [Compound 3, 7-[(2,3,4,5-Tetrahydro-2-methyl-4-methylene-5-oxo-2-furanyl)methoxy]-2H-1-benzopyran-2-one] | 0 | 26.1 (≈ 91.1 µM) | 0 |  | > 50 | 22.8 ± 6.6 | > 50 |
| C=C1CC(COc2ccc3ccc(=O)oc3c2)(c2ccccc2)OC1=O (stereo not shown) [Compound 4, 7-[(2,3,4,5-Tetrahydro-4-methylene-5-oxo-2-Phenyl-2-furanyl)methoxy]-2H-1-benzopyran-2-one] | 0 | 1.27 (≈ 3.65 µM) | 0 |  | 5.7 (≈ 16.4 µM) | 0 |  |
| C=C1CC(C)(COc2cccc3ccc(=O)[nH]c23)OC1=O (stereo not shown) [Compound 5, 8-[(2,3,4,5-Tetrahydro-2-methyl-4-methylene-5-oxo-2-furanyl)methoxy]-2(1H)-quinolinone] | 0 | 10.5 (≈ 36.9 µM) | 0 |  |  | 25.9 ± 0.7 |  |
| C=C1CC(COc2cccc3ccc(=O)[nH]c23)(c2ccccc2)OC1=O (stereo not shown) [Compound 6, 8-[(2,3,4,5-Tetrahydro-4-methylene-5-oxo-2-phenyl-2-furanyl)methoxy]-2(1H)-quinolinone] | 0 | 8.3 (≈ 23.9 µM) | 0 |  | > 50 | 54.3 ± 1.3 | > 50 |
| C=C1CC(C)(COc2cccc3cccnc23)OC1=O (stereo not shown) [Compound 7, 8-[(2,3,4,5-Tetrahydro-2-methyl-4-methylene-5-oxo-2-furanyl)methoxy]quinoline] | 0 |  | 0 | 27.2 (≈ 101 µM) | 47.9 (≈ 178 µM) | 17.4 ± 7.9 | > 50 |
| C=C1CC(COc2cccc3cccnc23)(c2ccccc2)OC1=O (stereo not shown) [Compound 8, 8-[(2,3,4,5-Tetrahydro-4-methylene-5-oxo-2-phenyl-2-furanyl)methoxy]quinoline] | 0 |  | 0 | 4.76 (≈ 14.4 µM) | 11.1 (≈ 33.6 µM) | 0 | 15.8 (≈ 47.6 µM) |
| C=C1CC(COc2cccc3cccnc23)(c2ccc(Cl)cc2)OC1=O (stereo not shown) [Compound 9, 8-[(2-(p-Chlorophenyl)-2,3,4,5-tetrahydro-4-methylene-5-oxo-2-furanyl)methoxy]quinoline] | 0 |  | 0 | 5.17 (≈ 14.1 µM) | 12.4 (≈ 33.8 µM) | 0 | 13.7 (≈ 37.4 µM) |
| C=C1CC(C)(COc2cccc3ccc(C)nc23)OC1=O (stereo not shown) [Compound 10, 8-[(2,3,4,5-Tetrahydro-2-methyl-4-methylene-5-oxo-2-furanyl)methoxy]-2-methylquinoline] | 0 |  | 0 | 16.2 (≈ 57.3 µM) | 39.6 (≈ 140 µM) | 0 | > 50 |
| C=C1CC(COc2cccc3ccc(C)nc23)(c2ccccc2)OC1=O (stereo not shown) [Compound 11, 8-[(2,3,4,5-Tetrahydro-4-methylene-5-oxo-2-phenyl-2-furanyl)methoxy]-2-methylquinoline] | 0 |  | 0 | 5.76 (≈ 16.7 µM) | 10.5 (≈ 30.5 µM) | 0 | 14.9 (≈ 43.1 µM) |
| C=C1CC(COc2cccc3ccc(C)nc23)(c2ccc(Cl)cc2)OC1=O (stereo not shown) [Compound 12, 8-[(2-(p-Chlorophenyl)-2,3,4,5-tetrahydro-4-methylene-5-oxo-2-furanyl)methoxy]-2-methylquinoline] | 0 |  | 0 |  | 10.8 (≈ 28.5 µM) | 0 |  |
